The numbers were not newly measured in PMC6323428, “Elucidation of the Intestinal Absorption Mechanism of Loganin in the Human Intestinal Caco-2 Cell Model” (Evidence-based Complementary and Alternative Medicine : eCAM, 2018), which cites them from elsewhere.

This series relates to human intestinal Caco-2 cells. Also on record: method as in PMID 27531366. The following applies: Caco-2 cells model, chiefly passive diffusion; cited from earlier work.

In the case of `COC(=O)C1=CO[C@@H](O[C@@H]2O[C@H](CO)[C@@H](O)[C@H](O)[C@H]2O)[C@@H]2C(CO)=CC[C@H]12` [geniposide], the “Intestinal permeability (in words)” value is given as “good”.
